ChEMBL document CHEMBL1201862, “PubChem BioAssay data set” (2004)
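Growth conditions: 96-well plates. Treatment: test compound, 48 hours, 5 concentrations. Analysis: linear interpolation between bracketing concentrations; unreached endpoints set to highest concentration. GI50 marks 50% less growth.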 The source made the active and inactive calls. Cut-off read from the data, not from the text of the source: active = GI50 up to about 1.1 µM and inactive = higher.

What was measured:
Test in all cases: NCI anticancer screen, dose series, 48 h
A549 = system: A549
ACHN = system: ACHN
CAKI-1 = system: CAKI-1
DU-145 = system: DU-145
EKVX = system: EKVX
K562 = system: K562
LOX IMVI = system: LOX IMVI
MDA-MB-435 = system: MDA-MB-435
OVCAR-3 = system: OVCAR-3
OVCAR-5 = system: OVCAR-5
OVCAR-8 = system: OVCAR-8
SK-MEL-28 = system: SK-MEL-28
T47D = system: T47D
U-251 = system: U-251
UACC-62 = system: UACC-62
UO-31 = system: UO-31
HOP-92 = system: HOP-92
Malme-3M = system: Malme-3M
RXF 393 = system: RXF 393
HCC 2998 = system: HCC 2998

SMILES	GI50 (A549)	GI50 (ACHN)	GI50 (CAKI-1)	GI50 (DU-145)	GI50 (EKVX)	GI50 (K562)	GI50 (LOX IMVI)	GI50 (MDA-MB-435)	GI50 (OVCAR-3)	GI50 (OVCAR-5)	GI50 (OVCAR-8)	GI50 (SK-MEL-28)	GI50 (T47D)	GI50 (U-251)	GI50 (UACC-62)	GI50 (UO-31)	GI50 (HOP-92)	GI50 (Malme-3M)	GI50 (RXF 393)	GI50 (HCC 2998)
CCN(CC(O)COc1ccc2c(c1)[n+]([O-])nc(N)[n+]2[O-])C(C)=O (configuration not stated)	> 100 µM (inactive)	> 100 µM (inactive)	> 100 µM (inactive)	> 100 µM (inactive)	> 100 µM (inactive)	79.6 µM (inactive)	76.6 µM (inactive)	> 100 µM (inactive)	> 100 µM (inactive)	> 100 µM (inactive)	59.3 µM (inactive)	> 100 µM (inactive)	20.2 µM (inactive)	> 100 µM (inactive)	49.7 µM (inactive)	> 100 µM (inactive)	–	–	–	–
CCOc1cc2c(c(OCC)c1O)CC[C@@H]1[C@@H]2CC[C@]2(C)[C@@H](O)CC[C@@H]12	7.11 µM (inactive)	1.11 µM (active)	0.746 µM (active)	–	6.1 µM (inactive)	0.329 µM (active)	2.23 µM (inactive)	0.203 µM (active)	–	10.7 µM (inactive)	7.59 µM (inactive)	–	2.33 µM (inactive)	–	0.482 µM (active)	9.27 µM (inactive)	18.7 µM (inactive)	2.29 µM (inactive)	2.21 µM (inactive)	–
Cc1ccc(/C=N/Nc2ncccn2)s1	> 100 µM (inactive)	> 100 µM (inactive)	> 100 µM (inactive)	–	> 100 µM (inactive)	> 10 µM (inactive)	> 100 µM (inactive)	> 100 µM (inactive)	> 100 µM (inactive)	> 100 µM (inactive)	> 100 µM (inactive)	> 100 µM (inactive)	> 100 µM (inactive)	> 100 µM (inactive)	> 100 µM (inactive)	> 100 µM (inactive)	> 100 µM (inactive)	> 100 µM (inactive)	> 100 µM (inactive)	> 100 µM (inactive)
CCN(CCN(CC)C(=O)Nc1ccccc1)C(=O)Nc1ccccc1	> 100 µM (inactive)	> 100 µM (inactive)	–	> 100 µM (inactive)	> 100 µM (inactive)	> 100 µM (inactive)	> 100 µM (inactive)	–	–	> 100 µM (inactive)	> 100 µM (inactive)	> 100 µM (inactive)	> 100 µM (inactive)	> 100 µM (inactive)	> 100 µM (inactive)	> 100 µM (inactive)	> 100 µM (inactive)	> 100 µM (inactive)	> 100 µM (inactive)	> 100 µM (inactive)
C/N=C1\OC2=C3C(c4ccccc4)(O/C(=N/C)N(C)C3(c3ccccc3)OC2=O)N1C (configuration not stated)	> 100 µM (inactive)	> 100 µM (inactive)	> 100 µM (inactive)	> 100 µM (inactive)	> 100 µM (inactive)	> 100 µM (inactive)	–	–	> 100 µM (inactive)	> 100 µM (inactive)	> 100 µM (inactive)	> 100 µM (inactive)	> 100 µM (inactive)	> 100 µM (inactive)	> 100 µM (inactive)	> 10 µM (inactive)	–	–	–	> 100 µM (inactive)
CN1C(=O)C(=CNc2ccccc2Cl)C(=O)N(C)C1=O	21.7 µM (inactive)	24.5 µM (inactive)	> 100 µM (inactive)	–	> 100 µM (inactive)	22.2 µM (inactive)	15.3 µM (inactive)	> 100 µM (inactive)	15.2 µM (inactive)	24.8 µM (inactive)	> 100 µM (inactive)	–	20.1 µM (inactive)	> 100 µM (inactive)	> 100 µM (inactive)	> 100 µM (inactive)	> 100 µM (inactive)	> 100 µM (inactive)	15.1 µM (inactive)	18.7 µM (inactive)
COc1cc(C2c3cc4c(cc3OC(C)(O)C2C)OCO4)cc(OC)c1OC (configuration not stated)	0.197 µM (active)	0.938 µM (active)	12.2 µM (inactive)	0.456 µM (active)	28.6 µM (inactive)	0.274 µM (active)	0.692 µM (active)	0.118 µM (active)	0.316 µM (active)	> 100 µM (inactive)	0.217 µM (active)	–	–	0.443 µM (active)	–	0.857 µM (active)	–	0.407 µM (active)	0.211 µM (active)	0.646 µM (active)
CCOC(=O)C1CCCc2sc(N)c(C#N)c21 (configuration not stated)	> 100 µM (inactive)	> 100 µM (inactive)	–	–	57.3 µM (inactive)	> 100 µM (inactive)	–	–	–	> 100 µM (inactive)	> 100 µM (inactive)	> 100 µM (inactive)	> 100 µM (inactive)	> 100 µM (inactive)	> 100 µM (inactive)	> 100 µM (inactive)	70.6 µM (inactive)	> 100 µM (inactive)	> 100 µM (inactive)	> 100 µM (inactive)
Nc1ncnc2c1ncn2[C@@H]1C[C@H]1CO	> 100 µM (inactive)	> 100 µM (inactive)	–	–	> 100 µM (inactive)	> 100 µM (inactive)	> 100 µM (inactive)	> 10 µM (inactive)	42 µM (inactive)	> 100 µM (inactive)	> 100 µM (inactive)	–	> 100 µM (inactive)	> 100 µM (inactive)	–	> 100 µM (inactive)	–	> 100 µM (inactive)	–	> 100 µM (inactive)
C=C(C)C(=O)O[C@H]1C/C(CO)=C/CCC(=C)C(OC(C)=O)[C@H]2OC(=O)C(=C)[C@H]12 (some centres not stated)	19.1 µM (inactive)	8.45 µM (inactive)	9.84 µM (inactive)	17 µM (inactive)	> 10 µM (inactive)	2.44 µM (inactive)	4.12 µM (inactive)	4.61 µM (inactive)	6.44 µM (inactive)	38.5 µM (inactive)	16.2 µM (inactive)	7.76 µM (inactive)	6.95 µM (inactive)	17.8 µM (inactive)	10.2 µM (inactive)	5.19 µM (inactive)	–	3.96 µM (inactive)	–	12.5 µM (inactive)
COc1ccc(N2C(=O)CC(=O)N(C(=O)COc3ccc(OCC(=O)N4C(=O)CC(=O)N(c5ccc(OC)cc5)C4=S)cc3)C2=S)cc1	35.8 µM (inactive)	42.1 µM (inactive)	0.718 µM (active)	49.9 µM (inactive)	92.9 µM (inactive)	41.4 µM (inactive)	–	36.9 µM (inactive)	–	> 100 µM (inactive)	–	48.1 µM (inactive)	–	37.1 µM (inactive)	29.2 µM (inactive)	42.5 µM (inactive)	40.9 µM (inactive)	68.2 µM (inactive)	23.7 µM (inactive)	32.3 µM (inactive)
CC(=O)Oc1cc2c[n+](C)c3c4cc(OC(C)=O)c(OC(C)=O)cc4ccc3c2cc1OC(C)=O	12.8 µM (inactive)	4.68 µM (inactive)	4.48 µM (inactive)	3.78 µM (inactive)	3.56 µM (inactive)	–	2.82 µM (inactive)	–	2.24 µM (inactive)	17.3 µM (inactive)	2.73 µM (inactive)	> 100 µM (inactive)	1.87 µM (inactive)	1.72 µM (inactive)	3.97 µM (inactive)	1.36 µM (inactive)	4.32 µM (inactive)	2.39 µM (inactive)	0.168 µM (active)	9.23 µM (inactive)
O=C1NC2(CCCCC2)C(=O)N1CCN(CCCl)CCCl [SPIROMUSTINE]	135 µM (inactive)	23.1 µM (inactive)	41.8 µM (inactive)	> 25 µM (inactive)	204 µM (inactive)	214 µM (inactive)	104 µM (inactive)	> 25 µM (inactive)	–	> 233 µM (inactive)	129 µM (inactive)	97.5 µM (inactive)	23.9 µM (inactive)	182 µM (inactive)	77.6 µM (inactive)	218 µM (inactive)	–	165 µM (inactive)	–	> 230 µM (inactive)
COc1ccc(Cc2cc(Cc3ccc(OC)cc3)cc(Cc3ccc(OC)cc3)c2)cc1	> 100 µM (inactive)	> 100 µM (inactive)	–	> 100 µM (inactive)	> 100 µM (inactive)	> 100 µM (inactive)	> 100 µM (inactive)	13.6 µM (inactive)	> 100 µM (inactive)	> 100 µM (inactive)	> 100 µM (inactive)	> 100 µM (inactive)	> 100 µM (inactive)	> 100 µM (inactive)	> 100 µM (inactive)	> 100 µM (inactive)	> 100 µM (inactive)	56.8 µM (inactive)	–	> 100 µM (inactive)
C/C(=C\c1ccccn1)c1ccccn1	> 100 µM (inactive)	> 100 µM (inactive)	> 100 µM (inactive)	> 100 µM (inactive)	> 100 µM (inactive)	> 100 µM (inactive)	–	> 100 µM (inactive)	> 100 µM (inactive)	> 100 µM (inactive)	> 100 µM (inactive)	> 100 µM (inactive)	–	> 100 µM (inactive)	> 100 µM (inactive)	> 100 µM (inactive)	> 100 µM (inactive)	> 100 µM (inactive)	> 100 µM (inactive)	> 100 µM (inactive)
[N-]=[N+]=Nc1ccc2c(c1)Sc1ccccc1N2CCCCN1CCN(Cc2ccc(C(=O)c3ccc(CSCC(N)C(=O)O)cc3)cc2)CC1 (configuration not stated)	–	31.6 µM (inactive)	20.7 µM (inactive)	21.3 µM (inactive)	52.8 µM (inactive)	12.5 µM (inactive)	10.6 µM (inactive)	1.59 µM (inactive)	26.9 µM (inactive)	52.4 µM (inactive)	–	2.01 µM (inactive)	–	11.1 µM (inactive)	11.3 µM (inactive)	37.4 µM (inactive)	9.84 µM (inactive)	> 10 µM (inactive)	46.7 µM (inactive)	24.9 µM (inactive)
